Assay results as given in article PMC10812672, “Short Antimicrobial Peptide Derived from the Venom Gland Transcriptome of Pamphobeteus verdolaga Increases Gentamicin Susceptibility of Multidrug-Resistant Klebsiella pneumoniae” (Antibiotics, 2023).
Ends that are not written are not given here.

System: Gram-positive and Gram-negative bacteria representative of the ESKAPE group
Type: cell-based
Details: average over Gram-positive and Gram-negative ATCC strains of the ESKAPE group
Procedure: The nine AMPs identified in the initial screening were evaluated at concentrations between 1.56–200 µM, against E. coli ATCC® 25922, S. aureus ATCC® 29213, E. faecalis ATCC® 49532, P. aeruginosa ATCC® 9027, and K. pneumoniae ATCC® BAA-1705 (Supplementary Figures S2–S6). […] Only PvAMP66 and PvAMP172 reached the MBC for S. aureus at 50 µM and 100 µM, respectively (Table 2).
The evaluation of the antimicrobial activity of the peptides was conducted using the CLSI’s broth microdilution method for bacterial susceptibility testing. For the screening phase, peptides were evaluated at a single 30 μM concentration, in triplicate and in three independent assays, against the E. coli ATCC® 8739, E. coli ATCC® 25922, S. aureus ATCC® 6538, or S. aureus ATCC® 29213 reference USP and CLSI strains. […] Following this, the bacteria were suspended in Mueller-Hinton broth up to a concentration of approximately 1.50 × 10^8 CFU/mL, as measured by optical density at 600 nm between 0.06 to 0.11 (0.5 McFarland standard), in a Multiskan SkyHigh spectrophotometer (ThermoFisher Scientific, Waltham, MA, USA). […] The plate was incubated for 24 h at 37 °C (BE 500, Memmert GmbH, Büchenbach, Germany) and optical density was measured at 600 nm in a Multiskan SkyHigh spectrophotometer (ThermoFisher Scientific, Waltham, MI, USA). […]

WKKIKKFF-NH2 [PvAMP66]
average MIC: 46.87 µM
